According to article PMC11013038, “Design, Synthesis, and Evaluation of B-(Trifluoromethyl)phenyl Phosphine–Borane Derivatives as Novel Progesterone Receptor Antagonists” (Molecules, 2024):
pIC50: −log10 of the molar value.

Key:
androgen receptor (AR) = target: T1, androgen receptor (AR) (Mus musculus, UniProt P19091); assay: SC-3 cell proliferation assay, AR antagonistic activity (1 nM DHT-promoted proliferation); assay type: cell-based, murine; settings: for effect on SC-3 cell growth in the presence of dihydrotestosterone (AR antagonistic activity): androgen-dependent SC-3 cells; for pIC50: read-out: IC50 (antagonist)
T1 construct: SC-3 cells were cultured in MEMα (Fujifilm Wako Co.) supplemented with 2 %; endogenous in cells; host or cells: SC-3
T1 sequence (P19091 1-899): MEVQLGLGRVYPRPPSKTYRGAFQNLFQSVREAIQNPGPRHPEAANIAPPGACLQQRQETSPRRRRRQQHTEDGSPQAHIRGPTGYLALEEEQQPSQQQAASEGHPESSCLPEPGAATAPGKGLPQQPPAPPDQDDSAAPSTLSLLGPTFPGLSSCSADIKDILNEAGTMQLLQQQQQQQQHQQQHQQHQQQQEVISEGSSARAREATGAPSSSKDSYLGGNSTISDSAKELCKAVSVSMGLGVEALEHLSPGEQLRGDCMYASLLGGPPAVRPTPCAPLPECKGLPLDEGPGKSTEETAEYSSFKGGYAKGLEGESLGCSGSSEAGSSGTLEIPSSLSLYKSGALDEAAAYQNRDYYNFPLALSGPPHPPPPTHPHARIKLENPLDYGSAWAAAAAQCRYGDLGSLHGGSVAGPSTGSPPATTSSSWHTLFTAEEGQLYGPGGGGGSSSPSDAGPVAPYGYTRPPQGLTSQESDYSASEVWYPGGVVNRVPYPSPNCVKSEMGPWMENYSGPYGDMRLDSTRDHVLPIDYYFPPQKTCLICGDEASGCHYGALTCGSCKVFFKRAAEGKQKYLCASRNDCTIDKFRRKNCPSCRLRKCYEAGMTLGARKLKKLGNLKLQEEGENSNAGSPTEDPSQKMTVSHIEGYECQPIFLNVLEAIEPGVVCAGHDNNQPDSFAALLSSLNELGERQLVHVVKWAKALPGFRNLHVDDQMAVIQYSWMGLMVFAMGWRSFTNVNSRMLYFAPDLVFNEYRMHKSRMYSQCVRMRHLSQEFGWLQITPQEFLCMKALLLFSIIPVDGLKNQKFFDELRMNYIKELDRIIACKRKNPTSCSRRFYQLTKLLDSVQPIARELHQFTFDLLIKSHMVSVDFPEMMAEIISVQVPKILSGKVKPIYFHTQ

[1] = LogP (1-octanol/water partition coefficient) determined using HPLC; assay type: physicochemical; settings: HPLC (OECD guideline), C18 column, methanol–water 75% (v/v), 40 °C, mean of triplicate
Protocol: Hydrophobicity is a key determinant of the activity and pharmacokinetics of biologically active compounds, and the octanol–water partition coefficient (P) and logarithm value (LogP) are widely used hydrophobicity parameters. The LogP values of the synthesized compounds were determined using HPLC [45, 46]. Table 1 summarizes the experimentally determined LogP values and calculated values. […] From the viewpoint of the phosphine structure, an increase in the number of carbon atoms increased hydrophobicity in a predictable manner.
The 1-octanol/water partition coefficient P was determined using HPLC based on the OECD Guideline for Testing Chemicals. A COSMOSIL Packed Column 5C18-MS-II (5 μm, 150 mm × 4.6 mm id, Nacalai Tesque, Inc., Kyoto, Japan) was fitted on an HPLC instrument (Multiwavelength Detector, MD-2010 Plus. JASCO, Tokyo, Japan) equipped with a pump (PU-2080, JASCO) and an oven (SSC-2120, Senshu Scientific Co., Ltd., Tokyo, Japan). The injection volume was 20 µL; the mobile phase was methanol–water 75% (v/v); and the flow rate was 1.0 mL/min in all cases. Compounds were detected by measuring the UV absorption at 240 nm. The temperature of the column was kept at 40.0 (± 0.1) °C during the measurement. The measurement was performed in triplicate, and the mean value was calculated. The dead time t0 was measured with thiourea as the unretained compound, and the capacity factor k was calculated using the equation logk = log (tr − t0/t0), where tr represents the retention time of the compound. A calibration graph was determined experimentally using reference compounds (4-methylphenol, 4-chlorophenol, 4-phenylphenol, diphenylether, fluoranthene, and dichlorodiphenyltrichloroethane) with known logP values. The LogP values of phosphine–boranes were calculated based on a calibration graph (LogP = 2.6269 logkw + 3.059, R^2 = 0.9915).

| effect on SC-3 cell growth in the presence of dihydrotestosterone (AR antagonistic activity) (androgen receptor (AR)) | pIC50 (androgen receptor (AR)) | chromatographic logP [1] | SMILES |
| --- | --- | --- | --- |
| did not affect cell growth | < 5.00 | 5.32 | FC(F)(F)c1ccc([BH2-][P+](C2CC2)(C2CC2)C2CC2)cc1 [Compound 34, B-4-(Trifluoromethyl)phenyl Tricyclopropylphosphine–Borane] |
| did not affect cell growth | < 5.00 | 3.65 | C[P+](C)(C)[BH2-]c1ccc(C(F)(F)F)cc1 [Compound 28, B-4-(Trifluoromethyl)phenyl Trimethylphosphine–Borane] |
